Experimental data taken from PMC9500974, “Ultrasonic-Assisted Synthesis of Benzofuran Appended Oxadiazole Molecules as Tyrosinase Inhibitors: Mechanistic Approach through Enzyme Inhibition, Molecular Docking, Chemoinformatics, ADMET and Drug-Likeness Studies” (International Journal of Molecular Sciences, 2022).

Target: bacterial tyrosinase (indigenously isolated from Bacillus subtilis NCTC 10400)
Assay: Tyrosinase inhibition assay (dopachrome formation, OD 475 nm)
Format: biochemical
Settings: L-tyrosine substrate, 25 °C, triplicates, mean ± SD
Protocol: The target derivatives were evaluated against tyrosinase enzyme (indigenously isolated from Bacillus subtilis NCTC 10400) inhibition. […] Structure-activity relationship (SAR) studies indicate that overall substituent-related tyrosinase activity decreases in the following way: 2-flouro > 2-chloro > 3,4-dichloro > 4-fluoro > 3,4-dimethyl > 2-methoxy > phenyl > 2,4-dimethyl > 2,5-dimethoxy > diethyl.
The bacterial tyrosinase enzyme isolation and preparation were fully described in our previously published paper and in other reported literature. A novel synthesized series of oxadiazole-based furan molecules were screened for anti-tyrosinase activity. Tyrosinase inhibition was investigated by modifying the reported methods of Kim. Briefly, phosphate buffer (0.05 M), L-tyrosine (765 µL; 2 mM) and tested compounds (35 µL) were incubated at ambient temperature for 10 min then bacterial tyrosinase (200 µL; about 48 U/mL) was added and the whole assay solution was allowed to stand at 25 °C for 2 min. The formation of dopachrome was monitored after incubation (2 min) by measuring the increase in optical density (OD) at λmax 475 nm. The stock solution for the entire synthesized series of oxadiazole-based furan moieties (1 mM) was prepared in DMSO (dimethyl sulfoxide). Five different dilutions of each oxadiazole-based furan moiety was prepared. Ascorbic acid (1 mM) was utilized for the standard tyrosinase inhibitor, and the values were expressed as IC50, the concentration of tested samples which caused the 50% inhibition. The percentage (%) of bacterial tyrosinase inhibitory activity was determine by utilizing the formula:(2) % Inhibition=A−BA×100
Here, A represents control enzyme, i.e., without inhibitor, while B represented the test sample, i.e., inhibitor.
The Prism software was used to analyze statistical data, while the results were measured in triplicates and depicted as mean ± SD.

Compound	IC50
O=C(CSc1nnc(-c2cc3cc(Br)ccc3o2)o1)Nc1ccccc1F [Compound 5a, 2-((5-(5-Bromobenzofuran-2-yl)-1,3,4-oxadiazol-2-yl)thio)-N-(2-fluorophenyl)acetamide]	11 ± 0.25 µM
Cc1ccc(NC(=O)CSc2nnc(-c3cc4cc(Br)ccc4o3)o2)cc1C [Compound 5e, 2-((5-(5-Bromobenzofuran-2-yl)-1,3,4-oxadiazol-2-yl)thio)-N-(3,4-dimethylphenyl)acetamide]	25 ± 0.75 µM
O=C(CSc1nnc(-c2cc3cc(Br)ccc3o2)o1)Nc1ccccc1 [Compound 5g, 2-((5-(5-Bromobenzofuran-2-yl)-1,3,4-oxadiazol-2-yl)thio)-N-phenylacetamide]	30 ± 1.5 µM
O=C(CSc1nnc(-c2cc3cc(Br)ccc3o2)o1)Nc1ccc(F)cc1 [Compound 5d, 2-((5-(5-Bromobenzofuran-2-yl)-1,3,4-oxadiazol-2-yl)thio)-N-(4-fluorophenyl)acetamide]	15.5 µM
CCN(CC)C(=O)CSc1nnc(-c2cc3ccccc3o2)o1 [Compound 5j]	49.5 ± 0.92 µM
O=C(CSc1nnc(-c2cc3cc(Br)ccc3o2)o1)Nc1ccccc1Cl [Compound 5b, 2-((5-(5-Bromobenzofuran-2-yl)-1,3,4-oxadiazol-2-yl)thio)-N-(2-chlorophenyl)acetamide]	12.4 µM
O=C(CSc1nnc(-c2cc3cc(Br)ccc3o2)o1)Nc1ccc(Cl)c(Cl)c1 [Compound 5c, 2-((5-(5-Bromobenzofuran-2-yl)-1,3,4-oxadiazol-2-yl)thio)-N-(3,4-dichlorophenyl)acetamide]	12.7 µM
O=C1O[C@H]([C@@H](O)CO)C(O)=C1O [Ascorbic acid, reference compound]	11.5 ± 1 µM

Continued, values first:

IC50	Compound
27 ± 1 µM	COc1ccccc1NC(=O)CSc1nnc(-c2cc3cc(Br)ccc3o2)o1 [Compound 5f, 2-((5-(5-Bromobenzofuran-2-yl)-1,3,4-oxadiazol-2-yl)thio)-N-(2-methoxyphenyl)acetamide]
48 ± 0.96 µM	COc1ccc(OC)c(NC(=O)CSc2nnc(-c3cc4cc(Br)ccc4o3)o2)c1 [Compound 5i, 2-((5-(5-Bromobenzofuran-2-yl)-1,3,4-oxadiazol-2-yl)thio)-N-(2,5-dimethoxyphenyl)acetamide]
36 ± 0.25 µM	Cc1ccc(NC(=O)CSc2nnc(-c3cc4cc(Br)ccc4o3)o2)c(C)c1 [Compound 5h, 2-((5-(5-Bromobenzofuran-2-yl)-1,3,4-oxadiazol-2-yl)thio)-N-(2,4-dimethylphenyl)acetamide]
